In patent US10004701B2, “Methods and compositions for treating infection” (UNIVERSITY OF ROCHESTER, priority 2012, dated 2018):
Counter-ions that a name gives are not always drawn. Like-named read-outs stand apart in the source and are kept apart here.

Legend:
Assay in all cases: AK assay 384-well format, Prestwick library screening
[1] = system: E. coli; format: cell-based, Escherichia coli; settings: for fold induction at 50 µM: Escherichia coli, 3 h
[2] = system: E. faecium; format: cell-based, Enterococcus faecium; settings: for fold induction at 50 µM: Enterococcus faecium, 3 h
[3] = system: P. aeruginosa; format: cell-based, Pseudomonas aeruginosa; settings: for fold induction at 50 µM: Pseudomonas aeruginosa, 3 h
[4] = system: K. pneumoniae; format: cell-based, Klebsiella pneumoniae; settings: for fold induction at 50 µM: Klebsiella pneumoniae, 3 h
[5] = system: A. baumannii strain 98-37-09; format: cell-based, Acinetobacter baumannii; settings: for fold induction at 50 µM: Acinetobacter baumannii, 983709, 3 h
[6] = system: S. aureus strain USA300-0114; format: cell-based, Staphylococcus aureus; settings: for fold induction at 50 µM: Staphylococcus aureus, USA300, 3 h
[7] = system: E. cloacae; format: cell-based, Enterobacter cloacae; settings: for fold induction at 50 µM: Enterobacter cloacae, 3 h
[8] = 50 μM final drug concentration, planktonic, cutoff for positive-scoring molecules 3-fold increase
[9] = 50 μM final drug concentration, planktonic, cutoff for positive-scoring molecules 3-fold increase, read-out: AK-based Prestwick Library Screening Results, E. coli (fold increase in extracellular AK activity)
[10] = 50 μM final drug concentration, planktonic, cutoff for positive-scoring molecules 3-fold increase, read-out: AK-based Prestwick Library Screening Results, E. faecium (fold increase in extracellular AK activity)
[11] = 50 μM final drug concentration, planktonic, cutoff for positive-scoring molecules 3-fold increase, read-out: AK-based Prestwick Library Screening Results, P. aeruginosa (fold increase in extracellular AK activity)
[12] = 50 μM final drug concentration, planktonic, cutoff for positive-scoring molecules 3-fold increase, read-out: AK-based Prestwick Library Screening Results, K. pneumoniae (fold increase in extracellular AK activity)
[13] = 50 μM final drug concentration, planktonic, cutoff for positive-scoring molecules 3-fold increase, read-out: AK-based Prestwick Library Screening Results, A. baumannii (fold increase in extracellular AK activity)
[14] = 50 μM final drug concentration, planktonic, cutoff for positive-scoring molecules 3-fold increase, read-out: AK-based Prestwick Library Screening Results, S. aureus (fold increase in extracellular AK activity)
[15] = 50 μM final drug concentration, planktonic, cutoff for positive-scoring molecules 3-fold increase, read-out: AK-based Prestwick Library Screening Results, E. cloacae (fold increase in extracellular AK activity)
[16] = 50 μM final drug concentration, 384-well format, […]

## C[C@]12CC[C@H](O)C[C@@H]1CC[C@@H]1[C@@H]2CC[C@]2(C)C(=O)CC[C@@H]12 [Epiandrosterone]
[1]; read-out: AK-based Prestwick Library Screening Results, E. coli (increase in extracellular AK activity)
  fold induction at 50 µM: 0.9
[2]; read-out: AK-based Prestwick Library Screening Results, E. faecium (increase in extracellular AK activity)
  fold induction at 50 µM: 1
[3]; read-out: AK-based Prestwick Library Screening Results, P. aeruginosa (increase in extracellular AK activity)
  fold induction at 50 µM: 0.8
[4]; read-out: AK-based Prestwick Library Screening Results, K. pneumoniae (increase in extracellular AK activity)
  fold induction at 50 µM: 0.7
[5]; read-out: AK-based Prestwick Library Screening Results, A. baumannii (increase in extracellular AK activity)
  fold induction at 50 µM: 0.8
[6]; read-out: AK-based Prestwick Library Screening Results, S. aureus (increase in extracellular AK activity)
  fold induction at 50 µM: 0.6
[7]; read-out: AK-based Prestwick Library Screening Results, E. cloacae (increase in extracellular AK activity)
  fold induction at 50 µM: 1.1

## Nc1nc(=O)c2c([nH]1)NCC(CNc1ccc(C(=O)N[C@@H](CCC(=O)[O-])C(=O)[O-])cc1)N2C=O.[Ca+2] (stereo partly shown) [Folinic acid calcium salt]
[1]; [8]
  AK-based Prestwick Library Screening Results, E. coli (fold increase in extracellular AK activity): 0.7
[2]; [8]
  AK-based Prestwick Library Screening Results, E. faecium (fold increase in extracellular AK activity): 1.0
[3]; [8]
  AK-based Prestwick Library Screening Results, P. aeruginosa (fold increase in extracellular AK activity): 0.6
[4]; [8]
  AK-based Prestwick Library Screening Results, K. pneumoniae (fold increase in extracellular AK activity): 0.6
[5]; [8]
  AK-based Prestwick Library Screening Results, A. baumannii (fold increase in extracellular AK activity): 0.7
[6]; [8]
  AK-based Prestwick Library Screening Results, S. aureus (fold increase in extracellular AK activity): 0.7
[7]; [8]
  AK-based Prestwick Library Screening Results, E. cloacae (fold increase in extracellular AK activity): 0.7

## CCN1CCN(C(=O)N[C@@H](C(=O)N[C@@H]2C(=O)N3[C@@H]2SC(C)(C)[C@@H]3C(=O)O)c2ccccc2)C(=O)C1=O [Piperacillin sodium salt]
[1]; [9]
  fold induction at 50 µM: 12.6
[2]; [10]
  fold induction at 50 µM: 0.9
[3]; [11]
  fold induction at 50 µM: 8.7
[4]; [12]
  fold induction at 50 µM: 2.3
[5]; [13]
  fold induction at 50 µM: 3.3
[6]; [14]
  fold induction at 50 µM: 0.4
[7]; [15]
  fold induction at 50 µM: 1.3

## O=C1C(O)=C([C@H]2CC[C@H](c3ccc(Cl)cc3)CC2)C(=O)c2ccccc21 [Atovaquone]
[1]; 50 μM final drug concentration, planktonic, cutoff for positive 3-fold increase, read-out: AK-based Prestwick Library Screening Results, E. coli (fold increase in extracellular AK activity)
  fold induction at 50 µM: 1.1
[2]; 50 μM final drug concentration, planktonic, cutoff for positive 3-fold increase, read-out: AK-based Prestwick Library Screening Results, E. faecium (fold increase in extracellular AK activity)
  fold induction at 50 µM: 1
[3]; 50 μM final drug concentration, planktonic, cutoff for positive 3-fold increase, read-out: AK-based Prestwick Library Screening Results, P. aeruginosa (fold increase in extracellular AK activity)
  fold induction at 50 µM: 1
[4]; 50 μM final drug concentration, planktonic, cutoff for positive 3-fold increase, read-out: AK-based Prestwick Library Screening Results, K. pneumoniae (fold increase in extracellular AK activity)
  fold induction at 50 µM: 0.8
[5]; 50 μM final drug concentration, planktonic, cutoff for positive 3-fold increase, read-out: AK-based Prestwick Library Screening Results, A. baumannii (fold increase in extracellular AK activity)
  fold induction at 50 µM: 1.2
[6]; 50 μM final drug concentration, planktonic, cutoff for positive 3-fold increase, read-out: AK-based Prestwick Library Screening Results, S. aureus (fold increase in extracellular AK activity)
  fold induction at 50 µM: 1.2
[7]; 50 μM final drug concentration, planktonic, cutoff for positive 3-fold increase, read-out: AK-based Prestwick Library Screening Results, E. cloacae (fold increase in extracellular AK activity)
  fold induction at 50 µM: 1.4

## C[N+]12CCC(CC1)C(OC(=O)C(O)(c1ccccc1)c1ccccc1)C2 (stereo not shown) [Clidinium bromide]
[1]; read-out: AK-based Prestwick Library Screening Results, E. coli (fold increase in extracellular AK activity)
  fold induction at 50 µM: 1
[2]; read-out: AK-based Prestwick Library Screening Results, E. faecium (fold increase in extracellular AK activity)
  fold induction at 50 µM: 0.9
[3]; read-out: AK-based Prestwick Library Screening Results, P. aeruginosa (fold increase in extracellular AK activity)
  fold induction at 50 µM: 1.1
[4]; read-out: AK-based Prestwick Library Screening Results, K. pneumoniae (fold increase in extracellular AK activity)
  fold induction at 50 µM: 0.8
[5]; read-out: AK-based Prestwick Library Screening Results, A. baumannii (fold increase in extracellular AK activity)
  fold induction at 50 µM: 1.1
[6]; read-out: AK-based Prestwick Library Screening Results, S. aureus (fold increase in extracellular AK activity)
  fold induction at 50 µM: 0.9
[7]; read-out: AK-based Prestwick Library Screening Results, E. cloacae (fold increase in extracellular AK activity)
  fold induction at 50 µM: 1.3

## C[N+]1(CCCCC[N+]2(C)CCCC2)CCCC1.O=C([O-])C(O)C(O)C(=O)O.O=C([O-])C(O)C(O)C(=O)O [Pentolinium bitartrate]
[1]; [16]
  AK-based Prestwick Library Screening Results, E. coli (increase in extracellular AK activity): 0.8
[2]; [16]
  AK-based Prestwick Library Screening Results, E. faecium (increase in extracellular AK activity): 0.9
[3]; [16]
  AK-based Prestwick Library Screening Results, P. aeruginosa (increase in extracellular AK activity): 1.0
[4]; [16]
  AK-based Prestwick Library Screening Results, K. pneumoniae (increase in extracellular AK activity): 0.7
[5]; [16]
  AK-based Prestwick Library Screening Results, A. baumannii (increase in extracellular AK activity): 1.0
[6]; [16]
  AK-based Prestwick Library Screening Results, S. aureus (increase in extracellular AK activity): 0.7
[7]; [16]
  AK-based Prestwick Library Screening Results, E. cloacae (increase in extracellular AK activity): 1.1

## CCOC(=O)n1ccn(C)c1=S [Carbimazole]
[1]; planktonic E. coli, 50 μM final drug concentration, cutoff for positive-scoring molecules 3-fold increase, read-out: AK-based Prestwick Library Screening Results, E. coli (increase in extracellular AK activity)
  fold induction at 50 µM: 0.8
[2]; planktonic E. faecium, 50 μM final drug concentration, cutoff for positive-scoring molecules 3-fold increase, read-out: AK-based Prestwick Library Screening Results, E. faecium (increase in extracellular AK activity)
  fold induction at 50 µM: 0.9
[3]; planktonic P. aeruginosa, 50 μM final drug concentration, cutoff for positive-scoring molecules 3-fold increase, read-out: AK-based Prestwick Library Screening Results, P. aeruginosa (increase in extracellular AK activity)
  fold induction at 50 µM: 0.7
[4]; planktonic K. pneumoniae, 50 μM final drug concentration, cutoff for positive-scoring molecules 3-fold increase, read-out: AK-based Prestwick Library Screening Results, K. pneumoniae (increase in extracellular AK activity)
  fold induction at 50 µM: 0.7
[5]; planktonic A. baumannii, 50 μM final drug concentration, cutoff for positive-scoring molecules 3-fold increase, read-out: AK-based Prestwick Library Screening Results, A. baumannii (increase in extracellular AK activity)
  fold induction at 50 µM: 0.8
[6]; planktonic S. aureus, 50 μM final drug concentration, cutoff for positive-scoring molecules 3-fold increase, read-out: AK-based Prestwick Library Screening Results, S. aureus (increase in extracellular AK activity)
  fold induction at 50 µM: 0.6
[7]; planktonic E. cloacae, 50 μM final drug concentration, cutoff for positive-scoring molecules 3-fold increase, read-out: AK-based Prestwick Library Screening Results, E. cloacae (increase in extracellular AK activity)
  fold induction at 50 µM: 1.2

## C[C@@H]1O[C@@H](O[C@@H]2C=C3CC[C@@H]4[C@H](CC[C@]5(C)[C@@H](c6ccc(=O)oc6)CC[C@]45O)[C@@]3(C)CC2)[C@H](O)[C@H](O)[C@H]1O [Proscillaridin A]
[1]; planktonic E. coli, 50 μM final drug concentration, […]
  AK-based Prestwick library screening result, E. coli (fold increase in extracellular AK activity): 0.9
[2]; planktonic E. faecium, 50 μM final drug concentration, […]
  AK-based Prestwick library screening result, E. faecium (fold increase in extracellular AK activity): 0.8
[3]; planktonic P. aeruginosa, 50 μM final drug concentration, […]
  AK-based Prestwick library screening result, P. aeruginosa (fold increase in extracellular AK activity): 0.9
[4]; planktonic K. pneumoniae, 50 μM final drug concentration, […]
  AK-based Prestwick library screening result, K. pneumoniae (fold increase in extracellular AK activity): 0.7
[5]; planktonic A. baumannii, 50 μM final drug concentration, […]
  AK-based Prestwick library screening result, A. baumannii (fold increase in extracellular AK activity): 0.8
[6]; planktonic S. aureus, 50 μM final drug concentration, […]
  AK-based Prestwick library screening result, S. aureus (fold increase in extracellular AK activity): 0.6
[7]; planktonic E. cloacae, 50 μM final drug concentration, […]
  AK-based Prestwick library screening result, E. cloacae (fold increase in extracellular AK activity): 0.9

## O=C(CCCN1CCC(O)(c2ccc(Cl)cc2)CC1)c1ccc(F)cc1 [Haloperidol]
[1]; 50 μM final drug concentration, 384-well format, cutoff for positive-scoring molecules 3-fold increase, read-out: AK-based Prestwick Library Screening Results, E. coli (increase in extracellular AK activity)
  fold induction at 50 µM: 0.9
[2]; 50 μM final drug concentration, 384-well format, cutoff for positive-scoring molecules 3-fold increase, read-out: AK-based Prestwick Library Screening Results, E. faecium (increase in extracellular AK activity)
  fold induction at 50 µM: 0.9
[3]; 50 μM final drug concentration, 384-well format, cutoff for positive-scoring molecules 3-fold increase, read-out: AK-based Prestwick Library Screening Results, P. aeruginosa (increase in extracellular AK activity)
  fold induction at 50 µM: 0.9
[4]; 50 μM final drug concentration, 384-well format, cutoff for positive-scoring molecules 3-fold increase, read-out: AK-based Prestwick Library Screening Results, K. pneumoniae (increase in extracellular AK activity)
  fold induction at 50 µM: 0.6
[5]; 50 μM final drug concentration, 384-well format, cutoff for positive-scoring molecules 3-fold increase, read-out: AK-based Prestwick Library Screening Results, A. baumannii (increase in extracellular AK activity)
  fold induction at 50 µM: 1
[6]; 50 μM final drug concentration, 384-well format, cutoff for positive-scoring molecules 3-fold increase, read-out: AK-based Prestwick Library Screening Results, S. aureus (increase in extracellular AK activity)
  fold induction at 50 µM: 0.8
[7]; 50 μM final drug concentration, 384-well format, cutoff for positive-scoring molecules 3-fold increase, read-out: AK-based Prestwick Library Screening Results, E. cloacae (increase in extracellular AK activity)
  fold induction at 50 µM: 1.1

## Cc1nnc(NS(=O)(=O)c2ccc(N)cc2)s1 [Sulfamethizole]
[1]; [9]
  fold induction at 50 µM: 1
[2]; [10]
  fold induction at 50 µM: 0.9
[3]; [11]
  fold induction at 50 µM: 0.8
[4]; [12]
  fold induction at 50 µM: 0.7
[5]; [13]
  fold induction at 50 µM: 1.4
[6]; [14]
  fold induction at 50 µM: 0.7
[7]; [15]
  fold induction at 50 µM: 0.9
